The NIST ThermoML archive (doi:10.1021/je800377b)
Numbers after ± are expanded uncertainties.

Conditions: Liquid

SMILES	vapor or sublimation pressure (273.15 K) [kPa]	vapor or sublimation pressure (283.15 K) [kPa]	vapor or sublimation pressure (293.15 K) [kPa]	vapor or sublimation pressure (303.15 K) [kPa]	vapor or sublimation pressure (313.15 K) [kPa]	vapor or sublimation pressure (323.15 K) [kPa]
CCCC [butane]	103 ± 2	149 ± 3	208 ± 3	284 ± 4	378 ± 5	493 ± 6
CCC [propane]	476 ± 6	633 ± 8	833 ± 10	1079 ± 13	1366 ± 17	1709 ± 21
